Values after ≈ are worked out from the molar mass of the structure shown.
Test system: Mycobacterium tuberculosis
Assay: Antibacterial activity against Mycobacterium bovis BCG by microplate alamar blue assay
Type: functional
Settings: variant bovis BCG

Row | SMILES | MIC
1 | CCCCCC[C@H](CN1CCC(COc2cccc(C(=O)c3ccc(Cl)cc3)c2)CC1)OC(N)=O | 3 µg/mL (≈ 5.99 µM)
2 | CCCCCC[C@H](CN1CCC(COc2cccc(/C(=N\OC)c3ccc(Cl)cc3)c2)CC1)OC(N)=O | 2.95 µg/mL (≈ 5.56 µM)

— ChEMBL document CHEMBL2046305, “Discovery of selective menaquinone biosynthesis inhibitors against Mycobacterium tuberculosis” (J Med Chem, 2012)
